Results reported in ChEMBL document CHEMBL1151253, “Further membranolide diterpenes from the antarctic sponge dendrilla membranosa” (2004).

Legend:
Type in all cases: functional
Conditions in all cases: read-out: IZ
[1] = test system: Staphylococcus aureus; assay: Antibiotic activity against Staphylococcus aureus at 200 ug/disk after 24 hrs by disk diffusion method
[2] = test system: Escherichia coli; assay: Antibiotic activity against Escherichia coli at 200 ug/disk after 24 hrs by disk diffusion method
[3] = test system: Candida albicans; assay: Antifungal activity against Candida albicans at 200 ug/disk after 24 hrs by disk diffusion method

Compound	zone of inhibition at 200 µg/disc [1] [mm]	zone of inhibition at 200 µg/disc [2] [mm]	zone of inhibition at 200 µg/disc [3] [mm]
CO[C@@H]1O[C@@H](OC)c2c1ccc([C@@]1(C)CCCC(C)(C)C1)c2[C@@H](C)C(=O)O [MEMBRANOLIDE C]	0	8	4
CO[C@H]1O[C@@H](OC)c2c1ccc([C@@]1(C)CCCC(C)(C)C1)c2[C@@H](C)C(=O)O [MEMBRANOLIDE D]	7	6	9
